#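 Grown in 96-well plates, cells were treated for 48 hours with each compound at five concentrations. Insufficient inhibition: endpoint recorded as highest concentration tested. TGI is the concentration that stops growth completely.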
# Experiments:
# Test in all cases: inhibition of tumour cell growth, NCI panel, 48 h
# SF-295 CNS = tested on: SF-295 CNS
# NCI-H23 lung = tested on: NCI-H23 lung
# A549 NSCLC = tested on: A549 NSCLC
# OVCAR-4 ovarian = tested on: OVCAR-4 ovarian
# SK-OV-3 ovarian = tested on: SK-OV-3 ovarian
# BT-549 breast = tested on: BT-549 breast
# CCRF-CEM leukemia = tested on: CCRF-CEM leukemia
# K-562 leukemia = tested on: K-562 leukemia
# MDA-MB-231 breast = tested on: MDA-MB-231 breast
# NCI-H460 lung = tested on: NCI-H460 lung
# UO-31 renal = tested on: UO-31 renal
# TK-10 renal = tested on: TK-10 renal
# MCF7 breast = tested on: MCF7 breast
# SW-620 colon = tested on: SW-620 colon
# SK-MEL-2 melanoma = tested on: SK-MEL-2 melanoma
# HCT-15 colon = tested on: HCT-15 colon
# HL-60(TB) leukemia = tested on: HL-60(TB) leukemia
# COLO 205 colon = tested on: COLO 205 colon
# IGROV1 ovarian = tested on: IGROV1 ovarian
# MDA-MB-435 = tested on: MDA-MB-435
# SNB-19 CNS = tested on: SNB-19 CNS
# T-47D breast = tested on: T-47D breast
# OVCAR-3 ovarian = tested on: OVCAR-3 ovarian
# SNB-75 CNS = tested on: SNB-75 CNS
# DU-145 prostate = tested on: DU-145 prostate
# PC-3 prostate = tested on: PC-3 prostate
# HCC-2998 colon = tested on: HCC-2998 colon
# HS 578T breast = tested on: HS 578T breast
# 786-0 renal = tested on: 786-0 renal
# RPMI-8226 leukemia = tested on: RPMI-8226 leukemia
# UACC-257 melanoma = tested on: UACC-257 melanoma
# U251 CNS = tested on: U251 CNS
# HT29 colon = tested on: HT29 colon
# MALME-3M melanoma = tested on: MALME-3M melanoma
# HOP-62 NSCLC = tested on: HOP-62 NSCLC
# SK-MEL-5 melanoma = tested on: SK-MEL-5 melanoma
# LOX IMVI melanoma = tested on: LOX IMVI melanoma
# MOLT-4 leukemia = tested on: MOLT-4 leukemia
# OVCAR-5 ovarian = tested on: OVCAR-5 ovarian
# CAKI-1 renal = tested on: CAKI-1 renal
# M14 melanoma = tested on: M14 melanoma
# SF-268 CNS = tested on: SF-268 CNS
# ACHN renal = tested on: ACHN renal
# SR leukemia = tested on: SR leukemia
# NCI/ADR-RES ovarian = tested on: NCI/ADR-RES ovarian
# RXF 393 renal = tested on: RXF 393 renal
structure (smiles),measurement,setting,value
[N-]=[N+]=Nc1c(Cc2ccccc2)c(=O)oc2ccccc12,TGI,SF-295 CNS,> 100 µM
same,TGI,NCI-H23 lung,78.1 µM
same,TGI,A549 NSCLC,> 100 µM
same,TGI,OVCAR-4 ovarian,> 100 µM
same,TGI,SK-OV-3 ovarian,> 100 µM
same,TGI,BT-549 breast,46.9 µM
same,TGI,CCRF-CEM leukemia,45.8 µM
same,TGI,K-562 leukemia,86.9 µM
same,TGI,MDA-MB-231 breast,> 100 µM
same,TGI,NCI-H460 lung,57.3 µM
same,TGI,UO-31 renal,> 100 µM
same,TGI,TK-10 renal,60.4 µM
same,TGI,MCF7 breast,70.9 µM
same,TGI,SW-620 colon,39.7 µM
same,TGI,SK-MEL-2 melanoma,78.8 µM
same,TGI,HCT-15 colon,> 100 µM
same,TGI,HL-60(TB) leukemia,> 100 µM
same,TGI,COLO 205 colon,98.4 µM
same,TGI,IGROV1 ovarian,70.6 µM
same,TGI,MDA-MB-435,58.5 µM
same,TGI,SNB-19 CNS,> 100 µM
same,TGI,T-47D breast,> 100 µM
same,TGI,OVCAR-3 ovarian,> 100 µM
same,TGI,SNB-75 CNS,> 100 µM
same,TGI,DU-145 prostate,> 100 µM
same,TGI,PC-3 prostate,> 100 µM
same,TGI,HCC-2998 colon,62.1 µM
same,TGI,HS 578T breast,61.3 µM
same,TGI,786-0 renal,> 100 µM
same,TGI,RPMI-8226 leukemia,> 100 µM
same,TGI,UACC-257 melanoma,> 100 µM
same,TGI,U251 CNS,69.7 µM
same,TGI,HT29 colon,54.5 µM
same,TGI,MALME-3M melanoma,> 100 µM
same,TGI,HOP-62 NSCLC,50.3 µM
same,TGI,SK-MEL-5 melanoma,20.2 µM
same,TGI,LOX IMVI melanoma,28.4 µM
same,TGI,MOLT-4 leukemia,26.2 µM
same,TGI,OVCAR-5 ovarian,> 100 µM
same,TGI,CAKI-1 renal,> 100 µM
same,TGI,M14 melanoma,62.3 µM
same,TGI,SF-268 CNS,62.1 µM
same,TGI,ACHN renal,> 100 µM
same,TGI,SR leukemia,> 100 µM
same,TGI,NCI/ADR-RES ovarian,> 100 µM
same,TGI,RXF 393 renal,38 µM
